Data as given in patent publication US7074791B2, “Pyrrolo[1,2-b]pyridazine compounds and their uses” (Pfizer Inc., priority 2002, dated 2006).

Row | SMILES | melting point
1 | CCC(CC)Nc1cc(C)nn2c(-c3ccc(Cl)cc3Cl)c(C)cc12 [Example 1, 7-(2,4-dichlorophenyl)-N-(1-ethylpropyl)-2,6-dimethylpyrrolo[1,2-b]pyridazin-4-amine] | 115 to 118 °C
2 | COCC(COC)Nc1cc(C)nn2c(-c3ccc(Cl)cc3Cl)c(C)cc12 [Example 2, 7-(2,4-dichlorophenyl)-N-[2-methoxy-1-(methoxymethyl)ethyl]-2,6-dimethylpyrrolo[1,2-b]pyridazin-4-amine] | 154 to 155 °C
